We go through one compound from patent US20230270731A1, “THERAPEUTIC COMPOUNDS AND COMPOSITIONS” (eXIthera Pharmaceuticals, Inc., priority 2019, published 2023).

Series [1] in a line: Equilibrium solubility of Compound 1 in common buffers. The settings on record: thermodynamic from solid, read-out: Avg. c(Compound 1, FB), equilibrium solubility. Format: physicochemical. Here is the method: The equilibrium solubility of Compound 1 was tested in common buffers (Table 2) at a buffer strength of c(buffer)=200 mM. For this, samples of Compound 1 with c(Compound 1, target)=16 mg/mL were prepared in the different buffer solutions (Table 3), mixed by vortexing and inspected for solid residues. For the cases for which no solid residues were observed the solutions were arbitrarily supplemented with additional solid Compound 1. This process was repeated (hourly observation) until a solid residue remained readily observable. The samples were rotated at room temperature for 24 h.
The equilibrium solubility samples were cleared by centrifugation (table top centrifuge, rcf=16,100×g, 10 min). The supernatant was subjected to HPLC analysis and assayed in triplicates for Compound 1 concentration using the HPLC method described in Example 2. The pH of the supernatant was measured (Table 3).

The nature of series [2]: pH-dependent stability and pH-rate profile, 10-day, 4° C. and 40° C. In kind it is physicochemical. The settings on record: for stability in buffered aqueous solutions: pH=2-8, 0.1 mg/mL, 100 mM buffer, in the dark, 10 days. Here is the method:
The stability Compound 1 was assessed over a 10-day period at several pH-values pH=2, 3, 4, 5, 6, 7, 8) and at two different temperatures (4° C., 40° C.). Samples of Compound 1 at c(Compound 1)=0.1 mg/mL were prepared in standard buffers (Table 2) at a buffer strength of c(buffer)=100 mM and incubated at either T=4° C. or T=40° C. (exclusion from light during incubation and analysis). The concentration of Compound 1 was assessed in such samples via HPLC analysis at an initial time point (to) and on days 1, 2, 3, 4, 7 and 10 (Δt=day×24 h). The pH was monitored at identical time points during the 10-day period.
Over the 10-day period for both temperatures the pH of the sample solutions (FIG. 2A & FIG. 2B) was monitored and the recovery (R %) of Compound 1 (FIG. 3A & FIG. 3B) was calculated via:
whereas c(Compound 1, theor.)=0.1 mg/mL and c(Compound 1, actual) is determined by HPLC analysis via integration of the Compound 1 parent peak areas.

Series [3] can be described thus: Citrate and PBS vehicle formulations: pH, osmolality, concentration and recovery (HPLC). In kind it is physicochemical. Here is the method:
Two additional vehicles: sodium citrate (50 mM) and PBS (commercial) were formulated at different concentrations (Table 5, Table 6). Both vehicles at any concentration were compounded using the appropriate final sodium hydroxide concentration (0.1 M NaOH stock solution).
The PBS vehicle was compounded to two different pH-values while the citrate vehicle was compounded at different concentrations at the same target pH and tested for its stability over the course of 24 h (rt, exclusion from light). To evaluate the potential occurrence of particles from precipitation, a filtration step (0.2 μm micro centrifugal filters) was included at each time point.
In case of Sample #27 the amount of HCl (aq.) (0.1 M stock) added instead of the NaOH-solution was mixed with the 10×PBS buffer and added to the aqueous solution of Compound 1 in a single step.

Series [4] concerns blood coagulation components (Cardiopulmonary Bypass circuit). Format: in vivo. The protocol:
The following parameters and endpoints were evaluated in this study: mortality, body weight, physical, clinical pathology parameters (hematology and coagulation), coagulation time, and bioanalytical parameters.
The vehicle and test article were administered via intravenous (IV) infusion once on Day 1 for 135 minutes (initiated 30 minutes prior to starting the Cardiopulmonary Bypass (CPB) and continuing for 105 minutes of CPB). Group 2 animals received a […] IV bolus dose immediately prior to the start of IV infusion. Group 3, 4, and 5 animals received a 10 mg/kg IV bolus dose prior to the start of the IV infusion; with the CPB machine primed with test article at 10 μg/mL.
Infusion of the Compound 1 was started 30 minutes prior to the animal being placed on the CPB pump. The CPB pump was primed with 0.9% saline.
Venous and arterial sheaths were flushed with the Compound 1 at a concentration of 10 μg/mL. An IV bolus dose of the test article was administered immediately prior to the start of the infusion. Infusion of Compound 1 was started 30 minutes prior to the animal being placed on the CPB pump. The CPB […] was primed with 10 μg/mL of the Compound 1 prior to initiation of the CPB pump.
An IV bolus dose of the Compound 1 was administered immediately prior to the start of the infusion. Infusion of Compound 1 was started 30 minutes prior to the animal being placed on the CPB pump.

The structures appear in SMILES notation. Values after ≈ are worked out from the molar mass of the structure shown. Like-named read-outs stand apart in the source and are kept apart here.

For `C[C@@H](NC(=O)N1C(=O)[C@H](Cc2ccnc(N)c2)[C@H]1C(=O)O)C1CCCCC1` [Compound 1, (2S,3R)-3-[(2-aminopyridin-4-yl)methyl]-1-{[(1R)-1-cyclohexylethyl]carbamoyl}-4-oxoazetidine-2-carboxylic acid], the solubility thermodynamic at 24 h in series [1] (citrate buffer, pH 2.72, aqueous buffer, citric acid/sodium 200 mM, pH (Buffer) 3.00, pH (Meas.) 2.72, room temperature 24 h) came to 5960 µg/mL (≈ 15.9 mM); in series [1] (citrate buffer, pH 3.74, aqueous buffer, citric acid/sodium 200 mM, pH (Buffer) 4.00, pH (Meas.) 3.74, room temperature 24 h), 6200 µg/mL (≈ 16.6 mM); in series [1] (pH 1.29, aqueous buffer, phosphoric acid/sodium phosphate 200 mM, pH (Buffer) 2.00, pH (Meas.) 1.29, room temperature 24 h) it was 159000 µg/mL (≈ 424 mM); in series [1] (pH 4.57, aqueous buffer, acetic acid/sodium acetate 200 mM, pH (Buffer) 5.00, pH (Meas.) 4.57, room temperature 24 h), 7480 µg/mL (≈ 20 mM); in series [1] (pH 6.33, aqueous buffer, sodium phosphate 200 mM, pH (Buffer) 7.00, pH (Meas.) 6.33, room temperature 24 h) it was 12000 µg/mL (≈ 32 mM); in series [1] (pH 6.67, aqueous buffer, sodium phosphate 200 mM, pH (Buffer) 8.00, pH (Meas.) 6.67, room temperature 24 h), 15300 µg/mL (≈ 40.9 mM). Further, the “precipitation of the drug compound” value in series [2] (0.1 mg/mL, pH 2-8, 10 days) was “no precipitation”. Further, in series [2] (pH 2-8, 10 days), the stability/pH-correlation entry is “more stable towards a low pH and less stable towards a higher pH”. Moreover, the “stability in buffered aqueous solutions” value in series [2] (4° C.) is “stable”; in series [2] (40° C.), “significant degradation”. Moreover, the “Stability of Compound 1 in citrate buffer” value in series [3] (24 h, ambient temperature) is “confirmed”. The “Precipitation of Compound 1” value in series [3] (citrate buffer, within 24 h) is reported as “not observed”. For the same compound, the “relation between plasma concentration and aPTT” value in series [4] (FIG. 12) was “correlation”. In addition, the aPTT result in series [4] (all groups, following cessation of infusion and CPB) was “trended towards baseline values, but remained moderately prolonged”; in series [4] (during Compound 1 infusion and prior to CPB, all animals), “moderately to markedly prolonged”. For the same compound, the “prolongations in aPTT” value in series [4] (course during infusion and CPB) is “persisted throughout Compound 1 infusion and CPB”. The morbidity or mortality result in series [4] (dog, in vivo) was “not associated with any increases in morbidity or mortality”. In addition, the survival result in series [4] (dog, in vivo) is listed as “All animals survived”. In addition, the “prevention of activation of blood coagulation in components of cardiopulmonary bypass” value in series [4] (hound CPB model) was “successful in preventing the activation of blood coagulation”. In series [4] (hound CPB model, coagulation parameters), the “selectivity of anticoagulant effects” value is “selective to inhibition of activated partial thromboplastin time (aPTT)”. In addition, the “pressure gradient across the membrane oxygenator” value in series [4] (multiple doses, IV infusion, CPB run) is given as “stayed consistent through the entire run”.
